Measurements from US8906909B2 (Curis, Inc., priority 2009, dated 2014).
Where two headings read alike, the source gives them in different places.

Legend:
[1] = target: T1, PI3Kα (p110α/p85α) (Homo sapiens, UniProt P42336); test: PI3Kα fluorescence polarization assay; format: biochemical; conditions: 10 μM ATP
T1 construct: N-terminal histidine-tagged recombinant full-length human p110α; His tag (N); made in house; host or cells: Baculovirus-infected Sf9 insect cells
Procedure: (a) An In Vitro Assay which Determines the Ability of a Test Compound to Inhibit PI3Kα.
Activity of PI3Kα was measured using fluorescence polarization assay. PI3Kα, a complex of N-terminal histidine-tagged recombinant full-length human p110α and untagged recombinant full length human p85α were coexpressed in a Baculovirus infected Sf9 cell expression system. (GenBank Accession No. for p110α, U79143; for p85α, XM—043865). The proteins are purified by one-step affinity chromatography using glutathione-agarose. A competition assay was performed to measure the amount of PIP3 generated from PIP2 in the presence of purified recombinant PI3Kα (p110α/p85α). PI3K a was incubated with 10 μM PIP2 substrate in the reaction buffer (20 mM HEPES, pH 7.5, 10 mM NaCl, 4 mM MgCl2, 2 mM DTT, 10 μM ATP and 1% DMSO) for 1 hour at 30° C. The reaction product was then mixed with a PIP3 detector protein and the fluorescent PIP3 probe. Polarization (mP) values decrease as fluorescent probe binding to the PIP3 detector is displaced by PIP3 produced by enzymatic activity and the amount of unbound fluorescent probe in the mixture increases. Polarization degrees (mP) value was determined using microplate reader with background subtraction.

[2] = test system: HDACs (HeLa cell nuclear extracts); test: HDAC enzymatic activity, Biomol Color de Lys system; format: biochemical
In short: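 IC50 from sigmoidal dose-response fits of fluorescence (Ex 350–380, Em 440–460 nm). Compounds in DMSO dilution series incubated 1 h at 25 °C with HeLa nuclear extract HDACs and colorimetric substrate, pH 8.0 Tris/Cl buffer with NaCl, KCl, MgCl2, before developer termination.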

[3] = test system: HCT-118 cells; test: Cell proliferation assay Method A (ATPlite), HCT-118; format: cell-based; conditions: 72 hours, read-out: antiproliferative activity IC50, HCT-118
In short: (§1)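 Cells seeded at 5,000–10,000 per well with graded compound concentrations and cultured 72 h in 0.5% fetal bovine serum. Growth inhibition read as cellular ATP content by firefly luciferase luminescence (ATPlite).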

[4] = test system: BT-474 cells; test: Cell proliferation assay Method A (ATPlite), BT-474; format: cell-based; conditions: Homo sapiens, 72 hours, read-out: antiproliferative activity IC50, BT-474
In short: as §1

[5] = test system: Sk-Mel-28 cells; test: Cell proliferation assay Method A (ATPlite), Sk-Mel-28; format: cell-based; conditions: Homo sapiens, 72 hours, read-out: antiproliferative activity IC50, Sk-Mel-28
In short: as §1

[6] = test system: H1993 cells; test: Cell proliferation assay Method A (ATPlite), H1993; format: cell-based; conditions: Homo sapiens, NCI-H1993, 72 hours, read-out: antiproliferative activity IC50, H1993
In short: as §1

[7] = test system: H1975 cells; test: Cell proliferation assay Method B, H1975; format: cell-based; conditions: Homo sapiens, NCI-H1975; NSCLC; H1975; 72 hours, 0.5% fetal bovine serum, CellTiter-Glo; read-out: antiproliferative activity IC50, H1975
Procedure: (§2) Cancer cell lines were plated at 5,000 to 10,000 per well in 96-well flat bottomed plates with various concentration of compounds. The cells were incubated with compounds for 72 hours in the presence of 0.5% of fetal bovine serum. Growth inhibition was accessed by adenosine triphosphate (ATP) content assay using Promega CellTiter-Glo kit. Promega CellTiter-Glo kit is an ATP monitoring system based on firefly luciferase. Briefly, 16 μl of mammalian cell lysis and substrate solution was added to 84 μl of culture medium per well to lyse the cells and stabilize the ATP. The mixture was shaken and incubated for 30 minutes and subsequently the luminescence was measured.

[8] = test system: H1993 cells; test: Cell proliferation assay Method B, H1993; format: cell-based; conditions: Homo sapiens, NCI-H1993; NSCLC; H1993; 72 hours, 0.5% fetal bovine serum, CellTiter-Glo; read-out: antiproliferative activity IC50, H1993
Procedure: as §2

[9] = test system: MDA-MB-231 cells; test: Cell proliferation assay Method B, MDA-MB-231; format: cell-based; conditions: Homo sapiens, 72 hours, 0.5% fetal bovine serum, CellTiter-Glo, read-out: antiproliferative activity IC50, MDA-MB-231
Procedure: as §2

[10] = test system: BT474 cells; test: Cell proliferation assay Method B, BT474; format: cell-based; conditions: Homo sapiens, BT-474, 72 hours, read-out: antiproliferative activity IC50, BT474
Procedure: as §2

[11] = test system: MDA-MB-468 cells; test: Cell proliferation assay Method B, MDA-MB-468; format: cell-based; conditions: Homo sapiens, 72 hours, 0.5% fetal bovine serum, CellTiter-Glo, read-out: antiproliferative activity IC50, MDA-MB-468
Procedure: as §2

[12] = test system: HCC1937 cells; test: Cell proliferation assay Method B, HCC1937; format: cell-based; conditions: Homo sapiens, 72 hours, 0.5% fetal bovine serum, CellTiter-Glo, read-out: antiproliferative activity IC50, HCC1937
Procedure: as §2

[13] = test system: MDA-MB-436 cells; test: Cell proliferation assay Method B, MDA-MB-436; format: cell-based; conditions: Homo sapiens, 72 hours, 0.5% fetal bovine serum, CellTiter-Glo, read-out: antiproliferative activity IC50, MDA-MB-436
Procedure: as §2

[14] = test system: U87MG cells; test: Cell proliferation assay Method B, U87MG; format: cell-based; conditions: Homo sapiens, U-87 MG; Glioblastoma; U87MG; 72 hours, 0.5% fetal bovine serum, CellTiter-Glo; read-out: antiproliferative activity IC50, U87MG
Procedure: as §2

[15] = test system: Ca127 cells; test: Cell proliferation assay Method B, Ca127; format: cell-based; conditions: HNC; Ca127; 72 hours, 0.5% fetal bovine serum, CellTiter-Glo; read-out: antiproliferative activity IC50, Ca127
Procedure: as §2

[16] = test system: Sk-Mel-28 cells; test: Cell proliferation assay Method B, Sk-Mel-28; format: cell-based; conditions: Homo sapiens; Melanoma; Sk-Mel-28; 72 hours, 0.5% fetal bovine serum, CellTiter-Glo; read-out: antiproliferative activity IC50, Sk-Mel-28
Procedure: as §2

[17] = test system: A375 cells; test: Cell proliferation assay Method B, A375; format: cell-based; conditions: Homo sapiens, A-375; Melanoma; A375; 72 hours, 0.5% fetal bovine serum, CellTiter-Glo; read-out: antiproliferative activity IC50, A375
Procedure: as §2

[18] = test system: HCC1806 cells; test: Cell proliferation assay Method B, HCC1806; format: cell-based; conditions: Homo sapiens, Breast, 72 hours, read-out: antiproliferative activity IC50, HCC1806
Procedure: as §2

[19] = test system: SKBr3 cells; test: Cell proliferation assay Method B, SKBr3; format: cell-based; conditions: Homo sapiens, SK-BR-3, Breast, 72 hours, read-out: antiproliferative activity IC50, SKBr3
Procedure: as §2

[20] = test system: MDA-MB-361 cells; test: Cell proliferation assay Method B, MDA-MB-361; format: cell-based; conditions: Homo sapiens, Breast, 72 hours, read-out: antiproliferative activity IC50, MDA-MB-361
Procedure: as §2

[21] = test system: MDA-MB-453 cells; test: Cell proliferation assay Method B, MDA-MB-453; format: cell-based; conditions: Homo sapiens, Breast, 72 hours, read-out: antiproliferative activity IC50, MDA-MB-453
Procedure: as §2

[22] = test system: MCF-7 cells; test: Cell proliferation assay Method B, MCF-7; format: cell-based; conditions: Homo sapiens, MCF7, Breast, 72 hours, read-out: antiproliferative activity IC50, MCF-7
Procedure: as §2

[23] = test system: T47D cells; test: Cell proliferation assay Method B, T47D; format: cell-based; conditions: Homo sapiens, Breast, 72 hours, read-out: antiproliferative activity IC50, T47D
Procedure: as §2

[24] = test system: ZR-75-1 cells; test: Cell proliferation assay Method B, ZR-75-1; format: cell-based; conditions: Homo sapiens, Breast, 72 hours, read-out: antiproliferative activity IC50, ZR-75-1
Procedure: as §2

[25] = test system: MOLT-4 cells; test: Cell proliferation assay Method B, MOLT-4; format: cell-based; conditions: Homo sapiens, ALL, 72 hours, read-out: antiproliferative activity IC50, MOLT-4
Procedure: as §2

[26] = test system: HL-60 cells; test: Cell proliferation assay Method B, HL-60; format: cell-based; conditions: Homo sapiens, AML, 72 hours, read-out: antiproliferative activity IC50, HL-60
Procedure: as §2

[27] = test system: U937 cells; test: Cell proliferation assay Method B, U937; format: cell-based; conditions: Homo sapiens, U-937, AML, 72 hours, read-out: antiproliferative activity IC50, U937
Procedure: as §2

[28] = test system: THP-1 cells; test: Cell proliferation assay Method B, THP-1; format: cell-based; conditions: Homo sapiens, AML, 72 hours, read-out: antiproliferative activity IC50, THP-1
Procedure: as §2

[29] = test system: MV-4-11 cells; test: Cell proliferation assay Method B, MV-4-11; format: cell-based; conditions: Homo sapiens, MV4-11, AML, 72 hours, read-out: antiproliferative activity IC50, MV-4-11
Procedure: as §2

[30] = test system: Pfeiffer cells; test: Cell proliferation assay Method B, Pfeiffer; format: cell-based; conditions: Homo sapiens, NHL, 72 hours, read-out: antiproliferative activity IC50, Pfeiffer
Procedure: as §2

[31] = test system: Raji cells; test: Cell proliferation assay Method B, Raji; format: cell-based; conditions: Homo sapiens, NHL, 72 hours, read-out: antiproliferative activity IC50, Raji
Procedure: as §2

[32] = test system: Daudi cells; test: Cell proliferation assay Method B, Daudi; format: cell-based; conditions: Homo sapiens, NHL, 72 hours, read-out: antiproliferative activity IC50, Daudi
Procedure: as §2

[33] = test system: K562 cells; test: Cell proliferation assay Method B, K562; format: cell-based; conditions: Homo sapiens, CML, 72 hours, read-out: antiproliferative activity IC50, K562
Procedure: as §2

[34] = test system: RPMI-8226 cells; test: Cell proliferation assay Method B, RPMI-8226; format: cell-based; conditions: Homo sapiens, Multiple Myeloma, Method B, 72 hours, read-out: antiproliferative activity IC50, RPMI-8226
Procedure: as §2

[35] = test system: ARH77 cells; test: Cell proliferation assay Method B, ARH77; format: cell-based; conditions: Homo sapiens, ARH-77, Multiple Myeloma, 72 hours, read-out: antiproliferative activity IC50, ARH77
Procedure: as §2

[36] = test system: L1210 cells; test: Cell proliferation assay Method B, L1210; format: cell-based; conditions: Mouse LL, 72 hours, read-out: antiproliferative activity IC50, L1210
Procedure: as §2

[37] = test system: P388 D1 cells; test: Cell proliferation assay Method B, P388 D1; format: cell-based; conditions: P388D1, Mouse Lymphoma, 72 hours, read-out: antiproliferative activity IC50, P388 D1
Procedure: as §2

[38] = test system: HCC1500 cells; test: Cell proliferation assay Method B, HCC1500; format: cell-based; conditions: Breast, 72 hours, read-out: antiproliferative activity IC50, HCC1500
Procedure: as §2

T1 sequence (P42336 whole entry): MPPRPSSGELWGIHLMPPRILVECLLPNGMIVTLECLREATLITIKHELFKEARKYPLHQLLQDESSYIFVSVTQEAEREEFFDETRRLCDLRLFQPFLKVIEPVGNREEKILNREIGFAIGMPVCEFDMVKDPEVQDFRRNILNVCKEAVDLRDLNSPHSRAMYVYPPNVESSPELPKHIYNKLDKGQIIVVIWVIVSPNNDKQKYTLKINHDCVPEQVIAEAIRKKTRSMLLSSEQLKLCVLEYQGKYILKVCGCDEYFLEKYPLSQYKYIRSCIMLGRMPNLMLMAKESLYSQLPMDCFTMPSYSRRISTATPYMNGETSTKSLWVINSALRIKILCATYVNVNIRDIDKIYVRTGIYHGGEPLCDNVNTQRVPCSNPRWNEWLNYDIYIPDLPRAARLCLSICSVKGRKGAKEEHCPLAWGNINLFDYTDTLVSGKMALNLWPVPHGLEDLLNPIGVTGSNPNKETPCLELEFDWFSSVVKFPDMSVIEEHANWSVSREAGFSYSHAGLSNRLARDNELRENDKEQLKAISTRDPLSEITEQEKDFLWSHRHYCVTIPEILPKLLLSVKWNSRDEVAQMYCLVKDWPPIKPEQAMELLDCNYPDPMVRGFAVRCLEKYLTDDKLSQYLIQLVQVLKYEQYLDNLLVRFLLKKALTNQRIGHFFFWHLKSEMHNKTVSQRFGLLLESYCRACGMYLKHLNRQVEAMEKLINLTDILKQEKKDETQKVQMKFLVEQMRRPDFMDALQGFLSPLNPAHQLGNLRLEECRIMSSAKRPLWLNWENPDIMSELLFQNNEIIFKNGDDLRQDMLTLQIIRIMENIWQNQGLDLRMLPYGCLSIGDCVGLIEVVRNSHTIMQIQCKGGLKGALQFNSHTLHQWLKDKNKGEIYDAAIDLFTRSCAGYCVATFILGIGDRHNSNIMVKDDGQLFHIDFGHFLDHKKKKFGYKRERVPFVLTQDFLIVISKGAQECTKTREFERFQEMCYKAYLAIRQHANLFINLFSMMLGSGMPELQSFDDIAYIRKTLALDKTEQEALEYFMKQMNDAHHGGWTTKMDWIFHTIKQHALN
T1 sequence (P27986 whole entry partner): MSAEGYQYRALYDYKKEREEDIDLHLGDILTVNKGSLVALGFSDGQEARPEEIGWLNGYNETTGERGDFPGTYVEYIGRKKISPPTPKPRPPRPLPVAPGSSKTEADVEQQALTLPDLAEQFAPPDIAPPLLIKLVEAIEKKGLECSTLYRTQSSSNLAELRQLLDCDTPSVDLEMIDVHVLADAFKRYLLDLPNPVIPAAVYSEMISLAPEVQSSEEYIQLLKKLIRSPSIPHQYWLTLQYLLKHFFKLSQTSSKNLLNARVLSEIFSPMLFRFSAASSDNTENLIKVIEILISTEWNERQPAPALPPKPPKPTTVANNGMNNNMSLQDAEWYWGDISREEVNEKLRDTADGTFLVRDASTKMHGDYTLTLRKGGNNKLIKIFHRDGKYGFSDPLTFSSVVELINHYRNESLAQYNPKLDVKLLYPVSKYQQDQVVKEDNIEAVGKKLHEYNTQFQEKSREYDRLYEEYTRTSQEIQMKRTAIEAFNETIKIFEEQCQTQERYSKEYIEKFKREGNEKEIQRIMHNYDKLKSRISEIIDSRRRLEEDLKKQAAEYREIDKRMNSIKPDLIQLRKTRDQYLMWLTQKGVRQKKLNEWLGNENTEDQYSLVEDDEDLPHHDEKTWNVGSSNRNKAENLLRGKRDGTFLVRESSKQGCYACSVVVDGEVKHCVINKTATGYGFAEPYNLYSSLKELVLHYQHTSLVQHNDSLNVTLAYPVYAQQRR

CS(=O)(=O)N1CCN(Cc2cc3nc(-c4cccc5c4cnn5CCCCC(=O)NO)nc(N4CCOCC4)c3s2)CC1 [Compound 3, N-hydroxy-5-(4-(6-((4-(methylsulfonyl)piperazin-1-yl)methyl)-4-morpholinothieno[3,2-d]pyrimidin-2-yl)-1H-indazol-1-yl)pentanamide]
IC50 [1]: > 10 µM | IC50 [2]: < 0.1 µM | melting point: 139 to 143 °C

CN(Cc1cc2nc(-c3ccc(N)nc3)nc(N3CCOCC3)c2s1)c1ncc(C(=O)NO)cn1 [Compound 110, 2-(((2-(6-Aminopyridin-3-yl)-4-morpholinothieno[3,2-d]pyrimidin-6-yl)methyl)(methyl)amino)-N-hydroxypyrimidine-5-carboxamide]
IC50 [2]: < 0.1 µM | IC50 [3]: < 0.1 µM | IC50 [4]: < 0.1 µM | IC50 [5]: < 0.1 µM | IC50 [6]: < 0.1 µM | IC50 [7]: 0.01 to 0.1 µM | IC50 [8]: 0.01 to 0.1 µM | IC50 [9]: 0.01 to 0.1 µM | IC50 ([10]; BT474, 0.5% fetal bovine serum, CellTiter-Glo): < 0.01 µM | IC50 [11]: 0.01 to 0.1 µM | IC50 [12]: 0.01 to 0.1 µM | IC50 [13]: 0.01 to 0.1 µM | IC50 [14]: < 0.01 µM | IC50 [15]: 0.01 to 0.1 µM | IC50 [16]: 0.01 to 0.1 µM | IC50 [17]: 0.01 to 0.1 µM | melting point: 175 to 181 °C

CNc1ccc(-c2nc(N3CCOCC3)c3sc(CN(C)c4ncc(C(=O)NO)cn4)cc3n2)cn1 [Compound 111, N-Hydroxy-2-(methyl((2-(6-(methylamino)pyridin-3-yl)-4-morpholinothieno[3,2-d]pyrimidin-6-yl)methyl)amino)pyrimidine-5-carboxamide]
IC50 [2]: < 0.1 µM | IC50 [18]: 0.01 to 0.1 µM | IC50 [19]: 0.01 to 0.1 µM | IC50 ([10]; Breast, Method B): < 0.01 µM | IC50 [20]: < 0.01 µM | IC50 [21]: < 0.01 µM | IC50 [22]: < 0.01 µM | IC50 [23]: < 0.01 µM | IC50 [24]: 0.01 to 0.1 µM | IC50 [25]: < 0.01 µM | IC50 [26]: < 0.01 µM | IC50 [27]: < 0.01 µM | IC50 [28]: 0.01 to 0.1 µM | IC50 [29]: < 0.01 µM | IC50 [30]: < 0.01 µM | IC50 [31]: 0.01 to 0.1 µM | IC50 [32]: < 0.01 µM | IC50 [33]: 0.01 to 0.1 µM | IC50 [34]: < 0.01 µM | IC50 [35]: < 0.01 µM | IC50 [36]: < 0.01 µM | IC50 [37]: < 0.01 µM

COc1ncc(-c2nc(N3CCOCC3)c3sc(CN(C)c4ncc(C(=O)NO)cn4)cc3n2)cn1 [Compound 261, N-Hydroxy-2-(((2-(2-methoxypyrimidin-5-yl)-4-morpholinothieno[3,2-d]pyrimidin-6-yl)methyl)(methyl)amino)pyrimidine-5-carboxamide]
IC50 [2]: < 0.1 µM | IC50 [38]: < 0.01 µM | IC50 [18]: < 0.01 µM | IC50 [19]: 0.01 to 0.1 µM | IC50 ([10]; Breast, Method B): < 0.01 µM | IC50 [20]: < 0.01 µM | IC50 [22]: < 0.01 µM | IC50 [23]: < 0.01 µM | IC50 [24]: < 0.01 µM | melting point: 215 to 220 °C
